According to article PMC11507521, “Pyrimidine Derivatives as Selective COX-2 Inhibitors with Anti-Inflammatory and Antioxidant Properties” (International Journal of Molecular Sciences, 2024):

Target: T1, human serum albumin (HSA) (Homo sapiens, UniProt P02768)
T1 construct: gene ALB; serum albumin in HEPES pH 7.4
Assay: UV-Vis titration, Benesi-Hildebrand
Assay type: binding
Settings: HEPES pH 7.4, 25 °C, DMSO < 1%
Text: UV-Vis titration, Benesi-Hildebrand on human serum albumin (HSA)

T1 sequence (P02768 25-609): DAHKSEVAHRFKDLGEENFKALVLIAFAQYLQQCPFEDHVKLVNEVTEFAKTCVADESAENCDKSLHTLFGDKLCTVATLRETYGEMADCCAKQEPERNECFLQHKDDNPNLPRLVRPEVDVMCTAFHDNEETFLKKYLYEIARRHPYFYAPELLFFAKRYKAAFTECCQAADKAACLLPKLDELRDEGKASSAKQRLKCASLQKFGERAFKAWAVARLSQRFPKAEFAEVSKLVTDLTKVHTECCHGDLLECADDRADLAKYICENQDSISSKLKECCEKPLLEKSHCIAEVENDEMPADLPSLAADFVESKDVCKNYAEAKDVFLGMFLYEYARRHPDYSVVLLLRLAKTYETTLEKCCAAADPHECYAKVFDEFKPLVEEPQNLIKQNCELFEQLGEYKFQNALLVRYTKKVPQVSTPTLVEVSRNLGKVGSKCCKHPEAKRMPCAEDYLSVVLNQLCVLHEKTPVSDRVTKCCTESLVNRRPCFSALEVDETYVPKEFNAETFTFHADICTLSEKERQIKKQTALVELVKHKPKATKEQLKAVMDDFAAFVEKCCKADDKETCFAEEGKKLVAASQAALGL

binding constant (Kb) to HSA	binding constant (Kb)	SMILES
4.54 × 10^5 dm^3/mol		COc1ccc2c(c1)CCCC2=NNc1cc(NCCN(C)C)ncn1 [L2]
	6.82 × 10^4 dm^3/mol	COc1ccc2c(c1)CCCC2=NNc1cc(NCCCN(C)C)ncn1 [L4]
9.92 × 10^4 dm^3/mol		CCN(CC)CCNc1cc(NN=C2CCCc3cc(OC)ccc32)ncn1 [L1]
